Reference: ChEMBL document CHEMBL5241090, “A comprehensive overview of β-carbolines and its derivatives as anticancer agents” (Eur J Med Chem, 2021)
pIC50: −log10 of the molar value. ≈ marks a conversion by molar mass, not a printed value. Values belong to the compound of their own block, whether it stands above or below them.

Tests used:
Type in all cases: functional, cell-based
MCF7 [1] = assay: Cytotoxicity against human MCF7 cells
HeLa [2] = assay: Cytotoxicity against human HeLa cells
Hep 3B2 = assay: Cytotoxicity against human Hep3B cells
SUNE1 = assay: Cytotoxicity against human SUNE1 cells incubated for 72 hrs by MTT assay; settings: SUNE1, 72 h
[3] = Cytotoxicity against human QGY-7701 cells incubated for 72 hrs by MTT assay; settings: QGY7701, 72 h
CNE-2 = assay: Cytotoxicity against human CNE-2 cells incubated for 72 hrs by MTT assay; settings: CNE-2, 72 h
HepG2 [4] = assay: Cytotoxicity against human HepG2 cells incubated for 72 hrs by MTT assay; settings: HepG2, 72 h
HONE1 cell line = assay: Cytotoxicity against human HONE1 cell line incubated for 72 hrs by MTT assay; settings: HONE1, 72 h
CNE = assay: Cytotoxicity against human CNE-1 cells incubated for 72 hrs by MTT assay
PC-3 [5] = assay: Cytotoxicity against human PC-3 cells
HL-60 = assay: Cytotoxicity against human HL-60 cells; settings: Homo sapiens, HL-60; read-out: IC50
SGC-7901 = assay: Cytotoxicity against human SGC-7901 cells
[6] = Cytotoxicity against mouse J558 cells assessed as growth inhibition measured upto 48 hrs by CCK-8 assay; settings: J558, 48 h
Ramos = assay: Cytotoxicity against human Ramos RA.1 cells assessed as growth inhibition measured upto 48 hrs by CCK-8 assay
COLO 205 = assay: Antiproliferative activity against human COLO 205 cells
A549 [7] = assay: Cytotoxicity against human A549 cells by MTT assay
HCT-116 = assay: Cytotoxicity against human HCT-116 cells
RPMI-8226 = assay: Cytotoxicity against human RPMI-8226 cells
SR = assay: Cytotoxicity against human SR cells
HT-29 = assay: Antitumor activity against human HT-29 cells assessed as inhibition of cell growth measured after 48 hrs by spectrophotometric analysis; settings: HT-29, 48 h
PC-3 [8] = assay: Antitumor activity against human PC-3 cells assessed as inhibition of cell growth measured after 48 hrs by spectrophotometric analysis; settings: PC-3, 48 h
NCI/ADR-RES = assay: Antitumor activity against human NCI-ADR-RES cells assessed as inhibition of cell growth measured after 48 hrs by spectrophotometric analysis
HaCaT = assay: Antitumor activity against human HaCaT cells assessed as inhibition of cell growth measured after 48 hrs by spectrophotometric analysis
786-0 = assay: Antitumor activity against human 786-0 cells assessed as inhibition of cell growth measured after 48 hrs by spectrophotometric analysis; settings: 786-0, 48 h
NCI-H460 [9] = assay: Antitumor activity against human NCI-H460 cells assessed as inhibition of cell growth measured after 48 hrs by spectrophotometric analysis; settings: NCI-H460, 48 h
MCF7 [10] = assay: Antitumor activity against human MCF7 cells assessed as inhibition of cell growth measured after 48 hrs by spectrophotometric analysis; settings: MCF7, 48 h
OVCAR-3 [11] = assay: Antitumor activity against human OVCAR-3 cells assessed as inhibition of cell growth measured after 48 hrs by spectrophotometric analysis; settings: OVCAR-3, 48 h
U-251 = assay: Antitumor activity against human U-251 cells assessed as inhibition of cell growth measured after 48 hrs by spectrophotometric analysis; settings: U-251, 48 h
HepG2 [12] = assay: Cytotoxicity against human HepG2 cells measured after 24 hrs by MTT assay; settings: HepG2, 24 h
HeLa [13] = assay: Cytotoxicity against human HeLa cells measured after 24 hrs by MTT assay
PC-3 [14] = assay: Antiproliferative activity against human PC-3 cells
PANC-1 = assay: Antiproliferative activity against human PANC-1 cells incubated for 72 hrs by MTT assay; settings: PANC-1, 72 h
Hs 683 = assay: Antiproliferative activity against human Hs 683 cells incubated for 72 hrs by MTT assay; settings: Hs 683, 72 h
T98G = assay: Antiproliferative activity against human T98G cells incubated for 72 hrs by MTT assay
MDA-MB-231 = assay: Antiproliferative activity against human MDA-MB-231 cells incubated for 72 hrs by MTT assay; settings: MDA-MB-231, 72 h
A549 [15] = assay: Antiproliferative activity against human A549 cells incubated for 72 hrs by MTT assay; settings: A549, 72 h
HCT-15 = assay: Cytotoxicity against human HCT-15 cells
A549 [16] = assay: Cytotoxicity against human A549 cells
NCI-H460 [17] = assay: Cytotoxicity against human NCI-H460 cells
CCRF-CEM = assay: Cytotoxicity against human drug sensitive CCRF-CEM cells assessed as fluorescence incubated for 72 hrs by resazurin reduction assay
Keratinocyte = assay: Cytotoxicity against guinea pig ear keratinocytes using [3H]thymidine by liquid scintillation counting analysis; settings: Cavia porcellus
ADR5000 cell line = assay: Cytotoxicity against human multidrug-resistant CEM/ADR5000 cells assessed as fluorescence incubated for 72 hrs by resazurin reduction assay; settings: ADR5000, 72 h
HCC1395 = assay: Antiproliferative activity against human HCC1395 cells incubated for 48 hrs by MTT assay; settings: HCC1395, 48 h
DU-145 = assay: Antiproliferative activity against human DU-145 cells incubated for 48 hrs by MTT assay; settings: DU-145, 48 h
Malme-3M = assay: Cytotoxicity against human Malme-3M cells
OVCAR-3 [18] = assay: Cytotoxicity against human OVCAR-3 cells

Compound: CCCCCCCCCCCCCCCCCCCCCCCC(=O)N1CCc2c([nH]c3ccc(O)cc23)[C@H]1Cc1ccc(O)cc1
- pIC50 (MCF7 [1]): > 5.70
- pIC50 (HeLa [2]): > 5.70
- pIC50 (Hep 3B2): > 5.70

Compound: O=C(c1nccc2c1[nH]c1ccccc12)[C@@H](O)CCCO
- pIC50 (SUNE1): 4.34
- pIC50 [3]: 4.54
- pIC50 (CNE-2): 4.69
- pIC50 (HepG2 [4]): 4.29
- pIC50 (HONE1 cell line): 4.70
- pIC50 (CNE): 4.79

Compound: COC(=O)NCCc1c(C(=O)C[C@]2(C)c3[nH]c4cc(OC)ccc4c3CCN2C(=O)OC)[nH]c2cc(OC)ccc12
- pIC50 (PC-3 [5]): 4.94
- pIC50 (HL-60): 5.42
- pIC50 (SGC-7901): 4.82

Compound: CCCCn1c2ccccc2c2cc[n+](Cc3ccc(F)cc3)c(-c3ccccc3Cl)c21
- pIC50 [6]: 5.10
- pIC50 (Ramos): 5.04

- pIC50 (COLO 205): 5.57
Compound: CC(C)(C)OC(=O)n1cc(C/C=C(\c2cn(C(=O)OC(C)(C)C)c3ccccc23)C2NCCc3c2[nH]c2ccccc32)c2ccccc21 (stereo not given)

Compound: C[C@@H](O)CCCCC(=O)c1nccc2c1[nH]c1ccccc12
- pIC50 (A549 [7]): 5.77

Compound: O=C(Cn1c2ccccc2c2ccncc21)N/N=C/c1cccc2ccccc12
- pIC50 (HCT-116): 5.46
- pIC50 (RPMI-8226): 5.11
- pIC50 (SR): 5.20

- pIC50 (HT-29): 7.10
- pIC50 (PC-3 [8]): 7.10
- pIC50 (786-0): 7.10
- pIC50 (NCI-H460 [9]): 7.10
- pIC50 (MCF7 [10]): 7.10
- pIC50 (OVCAR-3 [11]): 7.10
- pIC50 (U-251): 7.10
Compound: c1ccc(-c2nc(-c3nnc4snnn34)cc3c2[nH]c2ccccc23)cc1
- pIC50 (NCI/ADR-RES): 7.10
- pIC50 (HaCaT): 7.10

Compound: COC(=O)c1cc2c([nH]c3ccccc32)c(-c2cccc(OCc3cn(-c4ccc(Cl)c(Cl)c4)nn3)c2)n1
- pIC50 (HepG2 [12]): 4.49
- pIC50 (HeLa [13]): 4.34

- pIC50 (PC-3 [14]): 5.10
Compound: COc1c[n+](Cc2ccccc2)c2ccc(=O)n3c4ccccc4c1c23

- pIC50 (PANC-1): 6.70
- pIC50 (MDA-MB-231): 6.70
- pIC50 (A549 [15]): 6.70
Compound: CCCn1c2cc(OCCC(C)C)ccc2c2cc[n+](Cc3ccccn3)c(C)c21
- pIC50 (Hs 683): 6.70
- pIC50 (T98G): 6.70

Compound: COc1ccc(OC)c(-c2nc(/C=C3/C(=O)N(Cc4ccccc4)c4ccc(Br)cc43)cc3c2[nH]c2ccccc23)c1
- pIC50 (HCT-15): 5.84
- pIC50 (MCF7 [1]): 5.84
- pIC50 (A549 [16]): 5.84
- pIC50 (HCT-116): 5.84
- pIC50 (NCI-H460 [17]): 5.84

- IC50 (HCC1395): 8.12 µg/mL (≈ 36.9 µM)
- IC50 (DU-145): 9.43 µg/mL (≈ 42.8 µM)
Compound: O=c1ccc2nccc3c4ccccc4n1c23 [CANTHIN-6-ONE]
- pIC50 (CCRF-CEM): 4.80
- IC50 (Keratinocyte): 1.11 µg/mL (≈ 5.04 µM)
- pIC50 (ADR5000 cell line): 4.98

Compound: O=C1c2ccccc2-[n+]2ccc3c([nH]c4ccccc43)c21 [FASCAPLYSIN]
- IC50 (MCF7 [1]): 0.14 µg/mL
- IC50 (Malme-3M): 0.03 µg/mL
- IC50 (A549 [16]): 0.38 µg/mL
- IC50 (OVCAR-3 [18]): 0.16 µg/mL
